# Patent US20150306110A1, “COMPOSITIONS AND METHODS FOR TREATMENT OF INFLAMMATION AND HYPERKERATOTIC LESIONS” (Novelix Pharmaceuticals, Inc., priority 2008, published 2015)
# Tests used:
# HAT 1080 (fibrosarcoma) = test: Cell growth/survival, HAT 1080 fibrosarcoma cells; format: cell-based; conditions: Homo sapiens, TP53 mut.
# Experimental: (§1) Melanoma cell lines used in this study were maintained in Dulbecco's modified Eagle medium (DMEM with 4500 mg/l glucose) supplemented with 10% FCS from Gibco BRL (Life Technologies, Berlin, Germany). The canine mastocytoma cell line C2 (DeVinney et al, Am. J. Respir. Cell Mol. Biol. 3:413-20, 1990) was used in this study, along with additional human cell lines: RD-ES and TC-71 (human Ewing's sarcoma), SAOS2 (human osteosarcoma), HT-1080 (human fibrosarcoma), Caco-2 (human colon adenocarcinoma), A549 (human lung adenocarcinoma), Hep-G2 and Hep-3B (human hepatocellular carcinoma), SK-N-DZ and SK-N-FI (human embryonal neuroblastoma), HTB9 (human bladder cancer), MDA-468 and MCF-7 (human breast cancer) and SW872 liposarcoma. All breast cancer cells were routinely cultured in DMEM/F-12 or in DMEM alone supplemented with 10% FCS at 37° C. in a humidified 5% CO2 atmosphere. RD-ES and TC-71 sarcoma cell lines were maintained in RPMI 1640 (Biochrom KG, Berlin, Germany) containing 10% FCS at 37° C. in a humidified 5% CO2 atmosphere. […]
# (§2) Briefly, cells were maintained in standard medium, harvested, and plated at equal densities (750,000 cells in 5 cm tissue culture dishes). […] For the assessment of cell growth, the number of surviving cells was determined using an automated cell counter from Beckman Coulter GmbH (Krefeld, Germany). […]
# [1] = system: human umbilical vein endothelial cells (HUVEC); test: Survival of HUVEC at 80% and 30% confluency; format: cell-based; conditions: 2.5 μM; for Mean survival, percentage of control-treated cells: HUVEC, n=3
# Experimental: (§3) All cells were treated with 2.5 μM NVX-207. Percentage (means±S.E., n=3) of control-treated cells are given. […] Mean survival in NVX-207 treated fibroblasts at 80% confluency was 92% (S.E.=3.8) versus 3.8% mean survival (S.E.=0.4) at 30% confluency. […] HUVECs, keratinocytes and fibroblast cells were obtained from Lonza GmbH (Wuppertal, Germany) and cultivated according to the manufacturer's instructions.
# (§4) Human umbilical vein endothelial cells (HUVEC), keratinocytes and fibroblast cells were obtained from Lonza GmbH (Wuppertal, Germany) and cultivated according to the manufacturer's instructions. […] The IC50 value of betulinic acid in human keratinocytes was recently determined to be ˜5.0 μg/ml (Tino Galgon al., Exp Dermatol. 14:736-43, 2005), while the IC50 of NVX-207 is ˜0.7 µg/ml. […] Mean survival in NVX-207 treated fibroblasts at 80% confluency was 92% (S.E.=3.8) versus 3.8% mean survival (S.E.=0.4) at 30% confluency. […] Under normal physiological conditions, the endothelium, as well as skin fibroblasts and skin keratinocytes, show relatively low turn-over and limited cell divisions to maintain tissue integrity.
# (§5) Keratinocytes at high confluence (e.g., 80%) mimic normal physiological conditions in which these cells divide more slowly (fewer cell divisions per unit of time). In contrast, keratinocytes in psoriatic lesions divide more rapidly, as do keratinocytes cultured at lower confluency (e.g., 30%). Thus, the 30% confluency conditions were considered a model for psoriasis whereas the behavior of 80% confluent cells more closely reflects the conditions observed in normal skin.
# [2] = system: canine lesion clinically diagnosed as basal cell carcinoma; test: Topical treatment of canine basal cell carcinoma; format: in vivo, dog
# From the text: A 1% topical solution of NVX-207 in 20% ethanol, 20% Tween® 80 was applied to an exophytically growing slightly bleeding (on contact) tumor on the nose of a dog using a NVX-207 soaked cotton swab every second to third day for 7 weeks.
# human keratinocytes = test: Survival / anti-proliferative activity in keratinocytes; format: cell-based; conditions: for Mean survival, percentage of control-treated cells: n=3
# Experimental: as §3, §4, §5
# Mastocytoma-C2 = test: Cell growth/survival, canine mastocytoma C2 cells; format: cell-based; conditions: Canis lupus familiaris
# Experimental: as §1, §2
# SK-N-FI = test: Cell growth/survival, SK-N-FI neuronal cancer cells; format: cell-based; conditions: Homo sapiens, TP53 mut.
# Experimental: as §1, §2
# Melanoma-TLM1 = test: Cell growth/survival, canine melanoma TLM1 cells; format: cell-based; conditions: Canis lupus familiaris
# Experimental: as §1, §2
smiles,measurement,setting,value
"C=C(C)[C@@H]1CC[C@]2(C(=O)OCC(N)(CO)CO)CC[C@]3(C)[C@H](CC[C@@H]4[C@@]5(C)CC[C@H](OC(C)=O)C(C)(C)[C@@H]5CC[C@]43C)[C@@H]12 [NVX-207, 3-O-acetylbetulinic acid-2-amino-3-hydroxy-2-hydroxymethylpropyl ester]",IC50,HAT 1080 (fibrosarcoma),5.6 µM
same,"Mean survival, percentage of control-treated cells",[1]; 30% confluency,18.3%
same,"Mean survival, percentage of control-treated cells",[1]; 80% confluency,90.3%
same,More effective at 30% confluency compared to 80% confluency,[1]; endothelial cells,~5 fold
same,Reduction of tumor,"[2]; 1% topical solution in 20% ethanol, 20% Tween 80 every second to third day, after 3 weeks",about 90%
same,Inflammation during treatment,[2]; topical,absence of inflammation
same,IC50,"human keratinocytes; Homo sapiens, Keratinocyte",~0.7 mg/L
same,IC50 lower compared to betulinic acid on a molar basis,human keratinocytes; human keratinocytes,~10 fold
same,More active against proliferating cells (30% vs 80% confluency),"human keratinocytes; keratinocytes, 2.5 μM",~6 fold
same,"Mean survival, percentage of control-treated cells","human keratinocytes; keratinocytes, 30% confluency, 2.5 μM",17%
same,"Mean survival, percentage of control-treated cells","human keratinocytes; keratinocytes, 80% confluency, 2.5 μM",92.7%
same,IC50,Mastocytoma-C2,3 µM
same,IC50,SK-N-FI,3.7 µM
same,IC50,Melanoma-TLM1,3.8 µM
